Reference: patent US20050107616A1, “Alpha-ketoamide derivatives as cathepsin k inhibitors” (priority 2001, published 2005)

biological target: T1, human cathepsin K (Homo sapiens, UniProt P43235); experiment: Cathepsin K inhibition assay, fluorogenic substrate Cbz-Phe-Arg-AMC, progress curve method; type: biochemical; settings: Table 1; human recombinant enzyme, pH 5.5, 30° C., 10 μM substrate; read-out: hCat K Ki
T1 construct: The proform of cathepsin K was converted to mature cathepsin K by brief exposure to pH 4; made in house; host or cells: baculovirus; Trichoplusia ni High Five cells (virus raised in Sf-9)
T1 sequence (P43235 115-329): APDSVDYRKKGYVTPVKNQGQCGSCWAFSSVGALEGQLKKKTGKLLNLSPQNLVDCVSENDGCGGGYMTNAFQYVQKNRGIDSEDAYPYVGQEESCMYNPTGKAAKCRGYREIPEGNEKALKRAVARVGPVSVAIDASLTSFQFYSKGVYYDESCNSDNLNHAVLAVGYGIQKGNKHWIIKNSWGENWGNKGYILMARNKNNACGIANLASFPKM
Method: All assays for cathepsin K were carried out with human and rat recombinant enzyme. Assays for cathepsins S Et V were also carried out with human recombinant enzyme. Assays for human cathepsins B. H. and L were carried out with enzyme, purchased from Athens Research and Technology, Inc., prepared from human liver tissue. […] A stock substrate solution of Cbz-Phe-Arg-AMC was prepared at a concentration of 50 mM in dimethyl sulfoxide. This substrate was diluted into the assay for a final substrate concentration of 10 μM in the rat cathepsin K, human cathepsin K, and human cathepsin B assays; a final substrate concentration of 5 μM in the human cathepsin L assay; and a final substrate concentration of 2 μM in the human cathepsin V assay.
All assays contained 10% dimethyl sulfoxide. […] All assays were conducted at 30° C. Product fluorescence (excitation at 360 nm; emission at 440 nm, (except cathepsin H which used excitation at 340 nm; emission at 420 nm)) was monitored with a PerSeptive Biosystems Cytofluor II fluorescence plate reader. Product progress curves were generated over 2.3 h monitoring the formation of 7-amino-4-methylcoumarin product (or β-naphthalamide for cathepsin H).
Two liters of Spodoptera frugiperda (Sf-9) cells (ATCC) were grown in Grace's Supplemented medium (Life Technologies) supplemented with 2 g/L glucose, 10% a fetal bovine serum (HyClone) and 0.10% pluronic F-68 (Life Technologies). […] The cells continued to grow for 72 h post-infection, before the virus was harvested by centrifugation at 1400× g for 30 min.
One and one-half liters of Trichoplusia ni (T. ni) High Five (TM) cells [JRH Biosciences, Woodland, Calif. […] Media were separated from cells at a rate of 1 L/min using the Centritech 100 (TM) continuous-flow centrifuge (DuPont) operating at 200× g.
Protein Purification: Media (human and rat) were filtered through a Whatman 3 filter, and then loaded onto a 25 mL Poros HS II (26 mm×47 mm) cation exchange column equilibrated in 25 mM sodium acetate at pH 5.5 (equilibration buffer). The column was washed until the absorbance reached the baseline value, and then the protein was eluted with a linear gradient from 0-2 M sodium chloride in the equilibration buffer. Column fractions were analyzed by SDS-PAGE, N-terminal sequencing, and mass spectrometry. Fractions containing the proform of cathepsin K were pooled and frozen at −80° C. The proform was concentrated in an Amicon Centriprep 10 and fractionated with a Superdex 75 column (26 mm×600 mm, Pharmacia) equilibrated in 400 mM sodium chloride, 25 mM sodium acetate at pH 5.5.
Cathepsin K Activation: The proform of cathepsin K was converted to mature cathepsin K by brief exposure to pH 4 in the presence of 5 mM L-cysteine. Typically, 5 mM L-cysteine was added to 10 mL of approximately 1 mg/mL procathepsin K. One mL of this solution was diluted ten-fold into 450 mM sodium acetate at pH 4.0 containing 5 mM L-cysteine. This solution was reacted at 23° C. for 2 min before neutralization with 2 mL 1.8 M sodium acetate at pH 6.0. The neutralized sample was added to the remaining 9 mL of procathepsin K. The mixture was incubated at 4° C. for 2-3 days. The activated cathepsin K was chromatographed on a Poros HS II column as described above.
Potential inhibitors were evaluated using the progress curve method. Assays were carried out in the presence of variable concentrations of test compound. Reactions were initiated by addition of buffered solutions of inhibitor and substrate to enzyme. Data analysis was conducted according to one of two procedures depending on the appearance of the progress curves in the presence of inhibitors. […] Ki values were calculated from IC50 values using equation 2 assuming a competitive model. [formula]

| SMILES | Ki [nM] |
| --- | --- |
| CCCC[C@H](NC(=O)O[C@@H](c1nnc(-c2cccnc2)o1)C(C)(C)C)C(=O)C(=O)Nc1ccn[nH]1 [Example 53, (1R)-2,2-dimethyl-1-[5-(3-pyridinyl)-1,3,4-oxadiazol-2-yl]propyl(1S)-1-[oxo(1H-pyrazol-5-ylamino)acetyl]pentylcarbamate] | 1 to 100 |
| CCCC[C@H](NC(=O)O[C@H](CCc1nnc(-c2ccc(C(F)(F)F)cc2)o1)C(C)(C)C)C(=O)C(=O)Nc1ccn[nH]1 [Example 26, (1R)-2,2-dimethyl-1-(2-{5-[4-(trifluoromethyl)phenyl]-1,3,4-oxadiazol-2-yl}ethyl)propyl(1S)-1-[oxo(1H-pyrazol-5-ylamino)acetyl]pentylcarbamate] | 0.01 to 1 |
| CCCC[C@H](NC(=O)O[C@H](Cc1nnc(-c2ccc(F)cc2)o1)C(C)(C)C)C(=O)C(=O)NCc1cccnc1 [Example 4, (1R)-1-{[5-(4-fluorophenyl)-1,3,4-oxadiazol-2-yl]methyl}-2,2-dimethylpropyl(1S)-1-{oxo[(3-pyridinylmethyl)amino]acetyl}pentylcarbamate] | 1 to 100 |
| CCCC[C@H](NC(=O)O[C@H](Cn1cnc(-c2cc(C(F)(F)F)cc(C(F)(F)F)c2)c1)C(C)(C)C)C(=O)C(=O)Nc1ccn[nH]1 [Example 50, (1S)-1-({4-[3,5-bis(trifluoromethyl)phenyl]-1H-imidazol-1-yl}methyl)-2,2-dimethylpropyl(1S)-1-[oxo(1H-pyrazol-5-ylamino)acetyl]pentylcarbamate] | 0.01 to 1 |
| CCCC[C@H](NC(=O)O[C@H](c1cccc(-c2ccccc2)c1)C(C)(C)C)C(=O)C(=O)Nc1ccn[nH]1 [Example 42, (1S)-1-[1,1′-biphenyl]-3-yl-2,2-dimethylpropyl(1S)-1-[oxo(1H-pyrazol-5-ylamino)acetyl]pentylcarbamate] | 0.01 to 1 |
